Data published in patent publication US20180271863A1, “TARGETING P2 PURINERGIC RECEPTORS TO TREAT HEPATOCELLULAR CARCINOMA (HCC)” (Baylor College of Medicine, priority 2015, published 2018).

Legend:
human hepatocytes = assay: Western blotting of cyclin proteins in human hepatocytes; format: cell-based
Procedure: Normal human primary hepatocytes isolated from healthy adults (no known history of HCC) in suspension or freshly-frozen prior to shipment (Cryoport Systems, CA) were purchased from Triangle Research Labs, NC. Fresh hepatocytes were plated on collagen-coated tissue culture plates or glass coverslips in Williams E complete media with additives (10% fetal bovine serum, 2 mM glutamine, […] insulin, 4 ng/ml glucagon, […] transferrin, 2.5 ng/ml sodium selenite, 10,000 U/ml penicillin, […] streptomycin, 50 g/ml gentamycin) for 3 h to ensure hepatocyte adherence to plates. Subsequently, hepatocytes were maintained in Williams E minimal media free from serum and growth factors for 24 h prior to treatment. Human hepatocellular carcinoma derived Huh7, and Hep3B, were cultured in Minimum Essential Medium Eagle (MEM); SNU-387 was cultured in Roswell Park Memorial Institute (RPMI) medium and PLC/PRF/5 cultured in Dulbecco's Modified Eagle's medium (DMEM). All maintenance culture media were supplemented with 10% fetal bovine serum (FBS), L-Glutamine (2 mM), penicillin (100 units/ml) and streptomycin ([…]) at 37° C. and 5% CO2. Cells were maintained in serum free media (containing 2 mM L-Glutamine, 100 units/ml penicillin and ([…])) streptomycin for 24 h prior to treatment. Total protein extracts were obtained by homogenizing cells in total lysis buffer (50 mM Tris-HCl, pH 7.5, 0.5 M NaCl, 2 mM EGTA, 2 mM EDTA, 1.0% Triton X-100, 0.25% Deoxycholate, 1 m/ml pepstatin, 1.0 m/ml leupeptin, 1.0 m/ml aprotinin, 1.0 mM phenylmethylsulfonyl fluoride, 1.0 mM Dithiothreitol, 2.0 mM activated Na3VO4, and 2.0 mM NaF) and centrifuging at 14,000 rpm for 10 min (4° C.). Equal amounts of total proteins as determined by BCA protein Assay (Pierce, Rockford, Ill.) were analyzed by Western blotting. Blots were probed with antibody specific for a-tubulin or GAPDH to ensure equal loading of proteins in each lane.

Huh7 cells [1] = assay: Western blotting of Huh7 nuclear fractions for YAP; format: cell-based, human; settings: 24 h treatment
From the text: (§1) Total protein extracts were obtained by homogenizing cells in total lysis buffer and analyzed by Western blotting as described recently (Oncotarget 2015; 6:41162-41179). Hippo kinases Mst1/2 and Lats1/2 work through a phosphorylation cascade to phosphorylate Yap, thereby retaining Yap in the cytoplasm. In spite of nucleotide-mediated Mst1/2 and Lats phosphorylation, ATP, ADP and ATPγS treatment was individually insufficient to induce Yap phosphorylation. […] Similarly, ATP treatment alone increased nuclear YAP protein expression (1.7 fold) (FIG. 20D).

Huh7 cells [2] = assay: Western blotting for hippo pathway phosphorylation (Mst1/2, LATS, Yap) in Huh7 cells; format: cell-based, human; settings: for Mst1/2 phosphorylation: Huh7, serum free 24 hours, as early as 5 minutes, sustained at 4 hours; for induction of Yap phosphorylation: Huh7, 12 h treatment
Procedure: as §1, with “6:41162-41179). […] Therefore, Applicants performed in vitro studies to test whether activation of P2 purinergic receptors may affect the hippo pathway and its downstream effectors. Huh7 cells—human derived hepatocellular carcinoma cells—maintained in serum free media for 24 hours—were treated with P2 purinergic receptor agonists. […] ADP treatment alone was also sufficient to induce LATs phosphorylation (2 h-1.7 fold, 4 h-1.5 fold) (FIG. 20B). […]” for “6:41162-41179).”

Huh7 cells [3] = assay: qRT-PCR of YAP target genes in Huh7 cells; format: cell-based, human; settings: 24 h treatment
From the text: Total RNA was isolated from human livers or cells and was amplified by qRT-PCR as described recently (Oncotarget 2015; 6:41162-41179). Next, Applicants tested whether extracellular nucleotide treatment may have an effect on YAP target genes important in hepatocellular carcinoma. […] Moreover, P2X3 antagonist (AF-353) pretreatment attenuated ATP mediated induction of survivin (FIG. 20G).

Compound	effect on ATP-mediated induction of cyclin D3 and cyclin E expression (human hepatocytes; AF-353 5 μM pre-treatment, ATP 24 h)	cyclin D3 protein expression (human hepatocytes; ATPγS 24 h) [fold]	cyclin E protein expression (human hepatocytes; ATPγS 24 h) [fold]	nuclear YAP protein expression compared to untreated cells (Huh7 cells [1]) [fold]	Mst1/2 phosphorylation (Huh7 cells [2])	induction of Yap phosphorylation (Huh7 cells [2])	AREG gene expression (Huh7 cells [3]) [fold]	CTGF gene expression (Huh7 cells [3]) [fold]	Sox9 gene expression (Huh7 cells [3]) [fold]	cyclin E gene expression (Huh7 cells [3]) [fold]	survivin gene expression (Huh7 cells [3]) [fold]
COc1cc(C(C)C)c(Oc2cnc(N)nc2N)cc1I [AF-353]	completely attenuated	–	–	–	–	–	–	–	–	–	–
Nc1ncnc2c1ncn2[C@@H]1O[C@H](COP(=O)(O)OP(=O)(O)OP(O)(O)=S)[C@@H](O)[C@H]1O [ATPγS]	–	2.0	2.0	2.8	significantly induced	insufficient	3.3	2.2	1.6	2.0	1.1
Nc1ncnc2c1ncn2[C@@H]1O[C@H](COP(=O)(O)OP(=O)(O)OP(=O)(O)O)[C@@H](O)[C@H]1O [ATP]	–	–	–	1.7	significantly induced	insufficient	5.1	3.4	2.0	2.1	1.1
